Publication PMC5132392, “Identification of a Highly Conserved Hypothetical Protein TON_0340 as a Probable Manganese-Dependent Phosphatase” (PLoS ONE, 2016)

Target: T1, TON_0340 (Thermococcus onnurineus, UniProt B6YTD8)
T1 construct: C-terminal CPD-(His)10 fusion auto-cleaved with phytate; E. coli BL21(DE3) RIPL; assay sample from dissolved crystals, EDTA-treated
T1 sequence (B6YTD8 1-268): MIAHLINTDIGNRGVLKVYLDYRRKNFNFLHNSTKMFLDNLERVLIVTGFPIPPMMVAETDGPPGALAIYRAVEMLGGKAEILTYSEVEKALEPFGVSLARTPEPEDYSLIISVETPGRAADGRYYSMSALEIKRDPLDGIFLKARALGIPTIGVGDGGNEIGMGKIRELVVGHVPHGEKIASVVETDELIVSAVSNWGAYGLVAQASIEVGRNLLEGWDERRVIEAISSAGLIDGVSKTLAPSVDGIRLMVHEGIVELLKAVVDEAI
Test: inorganic phosphate release (EnzChek / malachite green)
Type: biochemical
Settings: 2 mM AMP, 2 mM MnCl2, 100 mM HEPES pH 7.5, 100 mM NaCl, 37°C; Mn2+-dependent

With Nc1ncnc2c1ncn2[C@@H]1O[C@H](COP(=O)(O)O)[C@@H](O)[C@H]1O [AMP] as the molecule, how does the “inorganic phosphate release (EnzChek / malachite green)” value read?
Its value is “The highest activity was observed with AMP”.
